The values below come from patent US12577241B2, “Polycyclic pyridopyrazine derivative” (Shionogi & Co., Ltd., priority 2019, dated 2026).

Molecules are shown by their SMILES.

One test has as its system HIV mutant strains (E92Q/E138T/G140S/Q148H). The test can be described thus: Test Example 2: Resistance evaluation test (HeLa-CD4 cells, wild and mutant strain). It is filed as cell-based. Conditions: 3 days. The protocol:
Test Example 2: Resistance Evaluation Test
Serial dilutions of a test sample were prepared in a 96-well microplate (50 μL/well). 2.5×10^5 cells/mL of a HeLa-CD4 cell suspension was dispensed at 100 μL/well to the plate containing the test sample. Then, an HIV virus solution (wild strain and mutant strain) was dispensed at 50 μL/well. The plate was mixed with a plate mixer and cultured for 3 days in a CO2 incubator. The culture supernatant in each well was removed by suction. A cell lysis buffer was dispensed at 100 μL/well, and the plate was frozen in a freezer (−80° C.). The plate frozen in a freezer was thawed at room temperature, then mixed with a plate mixer, and centrifuged at 1,200 rpm for 5 minutes. Beta-Glo Reagent was dispensed at 20 μL/well to a 384-well microplate, 2 μL of the supernatant of each well (diluted as necessary) of the plate after centrifugation was added, and then the mixture was reacted at room temperature for about 30 minutes. The amount of luminescence of the plate after the reaction was measured with a microplate reader. A 50% HIV inhibitory concentration (EC50) was determined from a concentration-dependent curve using the following 4 parameter logistic curve fitting model. y=A+((B−A)/(1+((C/x)^D))) • A=minimum rate of inhibition (negative control, 0%) • B=maximum rate of inhibition (positive control, 100%) • C=compound concentration at an inflection point • D=slope coefficient • x=compound concentration • y=rate of inhibition (%)
The degree of resistance (fold change (FC)) of each mutant strain was calculated according to the following expression. • FC=EC50 of the mutant strain/EC50 of the wild strain (Results)
Consider `CCN1C(=O)c2c(O)c(=O)c(C(=O)NCc3cccc(Cl)c3F)cn2[C@H]2C[C@@H](COC)CC[C@H]21` [Compound I-014], for which the “FC (fold change, degree of resistance) = EC50 of the mutant strain/EC50 of the wild strain” value is on record as 4.1.

For the next test, the system named is HIV. The test can be described thus: Test Example 1: Anti-HIV activity (MT-4 cells, CellTiter-Glo). Conditions: 4 days culture, CellTiter-Glo luminescence, read-out: EC50 (50% HIV inhibitory concentration). In kind it is cell-based. The protocol:
Test Example 1: Anti-HIV Activity
Serial dilutions of a test sample were prepared in a 384-well microplate by a dispensing machine. 6.25×10^4 cells/mL of a MT-4 cell suspension was dispensed at 20 μL/well to the plate containing the test sample. Then, an HIV virus solution was dispensed at 20 μL/well. The plate was mixed with a plate mixer and cultured for 4 days in a CO2 incubator. On day 4 of culture, CellTiter-Glo or CellTiter-Glo 2.0 was dispensed at 20 μL/well. The plate was reacted while being stirred with the plate mixer at room temperature for about 15 minutes. The amount of luminescence of the plate after the reaction was measured with a microplate reader. A 50% HIV inhibitory concentration (EC50) was determined from a concentration-dependent curve using the following 4 parameter logistic curve fitting model. y=A+((B−A)/(1+((C/x)^D))) • A=minimum rate of inhibition (negative control, 0%) • B=maximum rate of inhibition (positive control, 100%) • C=compound concentration at an inflection point • D=slope coefficient • x=compound concentration • y=rate of inhibition (%) (Results)
In general terms: ATP-based viability assays read luminescence as a measure of living cells.
`CCN1C(=O)c2c(O)c(=O)c(C(=O)NCc3cccc(Cl)c3F)cn2[C@H]2CC(F)(F)C[C@H]21` [Compound I-001]: the EC50 came out at 1.4 nM.

Regarding `CCN1C(=O)c2c(O)c(=O)c(C(=O)NCc3cccc(Cl)c3F)cn2[C@H]2[C@H](COC)CC[C@H]21` [Compound I-013], the EC50 is 2.5 nM.

Still in this test, the particulars now being: Human immunodeficiency virus 1, MT4, 96 h, 4 days culture, CellTiter-Glo luminescence, read-out: EC50 (50% HIV inhibitory concentration).
As for `CCN1C(=O)c2c(O)c(=O)c(C(=O)NCc3c(F)cc(F)cc3F)cn2[C@H]2CC(F)(F)C[C@H]21` [Compound I-002], the EC50 came out at 1.5 nM. In the case of `CN1C(=O)c2c(O)c(=O)c(C(=O)NCc3nccc(Cl)c3F)cn2[C@H]2CCCC[C@H]21` [Compound I-004], the EC50 was 3.3 nM. Consider `CCN1C(=O)c2c(O)c(=O)c(C(=O)NCc3c(F)cc(F)cc3F)cn2[C@@H]2[C@H]1CCCC2(F)F` [Compound I-006], for which the EC50 was 0.63 nM. Consider `CCN1C(=O)c2c(O)c(=O)c(C(=O)NCc3cccc(Cl)c3F)cn2[C@H]2CCCC(F)(F)[C@H]21` [Compound I-007], for which the EC50 was 0.7 nM. With `CCN1C(=O)c2c(O)c(=O)c(C(=O)NCc3c(F)cc(F)cc3F)cn2[C@H]2CCCC(F)(F)[C@H]21` [Compound I-008], the EC50 turned out to be 0.52 nM. Consider `CCN1C(=O)c2c(O)c(=O)c(C(=O)NCc3c(F)cc(F)cc3F)cn2[C@H]2[C@@H]3CC[C@@H](C3)[C@H]21` [Compound I-010], for which the EC50 was 5.2 nM. `CCN1C(=O)c2c(O)c(=O)c(C(=O)NCc3cccc(Cl)c3F)cn2[C@H]2CCC(F)(F)C[C@H]21` [Compound I-011]: the EC50 turned out to be 9 nM. Regarding `CCN1C(=O)c2c(O)c(=O)c(C(=O)NCc3c(F)cc(F)cc3F)cn2[C@H]2CCC(F)(F)C[C@H]21` [Compound I-012], the EC50 came out at 0.93 nM. The same measure, in the same setting: next, `CCN1C(=O)c2c(O)c(=O)c(C(=O)NCc3cccc(Cl)c3F)cn2[C@H]2C[C@@H](COC)CC[C@H]21` [Compound I-014]: 3.8 nM; `CCN1C(=O)c2c(O)c(=O)c(C(=O)NCc3cccc(Cl)c3F)cn2[C@H]2C[C@@H](COC)C[C@H]21` [Compound I-015]: 2.5 nM. Consider `CN1C(=O)c2c(O)c(=O)c(-c3nnc(Cc4ccc(F)cc4F)s3)cn2[C@H]2CCCC[C@H]21` [Compound I-018], for which the EC50 was 2.3 nM. Regarding `CCN1C(=O)c2c(O)c(=O)c(-c3nnc(Cc4ccc(F)cc4F)s3)cn2[C@H]2[C@@H]3CC[C@@H](C3)[C@H]21` [Compound I-019], the EC50 was found to be 8.2 nM. As for `CCN1C(=O)c2c(O)c(=O)c(-c3nnc(Cc4ccc(F)cc4F)s3)cn2[C@H]2CCCC(F)(F)[C@H]21` [Compound I-021], the EC50 came to 3.6 nM. With `CCN1C(=O)c2c(O)c(=O)c(-c3nnc(Cc4ccc(F)cc4F)s3)cn2[C@H]2CCC(F)(F)C[C@H]21` [Compound I-023], the EC50 was 4.6 nM.

Consider `CCN1C(=O)c2c(O)c(=O)c(C(=O)NCc3cccc(Cl)c3F)cn2[C@H]2CCCC[C@H]21` [Compound I-024], for which the EC50 is 1.9 nM. As for `CCN1C(=O)c2c(O)c(=O)c(C(=O)NCc3ccc(F)cc3F)cn2[C@H]2CCCC[C@H]21` [Compound I-025], the EC50 turned out to be 2.1 nM. Take `CCN1C(=O)c2c(O)c(=O)c(C(=O)NCc3c(F)cc(F)cc3F)cn2[C@H]2CCCC[C@H]21` [Compound I-026]: the EC50 amounted to 1.3 nM. In the case of `CN1C(=O)c2c(O)c(=O)c(C(=O)NCc3c(F)cc(F)cc3F)cn2[C@H]2CCCC[C@H]21` [Compound I-027], the EC50 turned out to be 0.7 nM. Still for that read-out and setting: next, `CN1C(=O)c2c(O)c(=O)c(C(=O)NCc3cccc(Cl)c3F)cn2[C@H]2CCCC[C@H]21` [Compound I-028]: 1.2 nM; `CCN1C(=O)c2c(O)c(=O)c(C(=O)NCc3cccc(Cl)c3F)cn2[C@H]2CCC[C@H]21` [Compound I-029]: 2.2 nM. With `CCN1C(=O)c2c(O)c(=O)c(C(=O)NCc3c(F)cc(F)cc3F)cn2[C@H]2CCC[C@H]21` [Compound I-030], the EC50 worked out at 2.6 nM.

Another test concerns HIV. The test can be described thus: Test Example 1B: Anti-HIV activity (MT-4 cells, MTT). In kind it is cell-based. Conditions: Human immunodeficiency virus 1, MT4, 96 h, 4 days culture, MTT absorbance, read-out: EC50 (50% HIV inhibitory concentration). How it is done:
Test Example 1B: Anti-HIV Activity
Serial dilutions of a test sample were prepared in a 96-well microplate (50 μL/well). 2.5×10^5 cells/mL of a MT-4 cell suspension was dispensed at 100 μL/well to the plate containing the test sample. Then, an HIV virus solution was dispensed at 50 μL/well. The plate was mixed with a plate mixer and cultured for 4 days in a CO2 incubator. An MTT (3-(4,5-dimethylthiazol-2-yl)-2,5-diphenyltetrazolium bromide) solution was dispensed at 30 μL/well. The plate was reacted for 1 hour in a CO2 incubator. 150 μL of the supernatant was removed from each well so as not to take up the cells. 150 μL of a cell lysis solution was added to each well and well mixed with a plate mixer until the cells were completely lysed. The absorbance of the mixed plate was measured at two wavelengths of 560 nm and 690 nm using a microplate reader. A 50% HIV inhibitory concentration (EC50) was determined from a concentration-dependent curve using the following 4 parameter logistic curve fitting model. y=A+((B−A)/(1+(C/x)^D)) • A=minimum rate of inhibition (negative control, 0%) • B=maximum rate of inhibition (positive control, 100%) • C=compound concentration at an inflection point • D=slope coefficient • x=compound concentration • y=rate of inhibition (%) (Results)
For `CCN1C(=O)c2c(O)c(=O)c(C(=O)NCc3cccc(Cl)c3F)cn2[C@H]2Cc3ccccc3[C@H]21` [Compound I-033], the EC50 worked out at 9.7 nM. As to `CCN1C(=O)c2c(O)c(=O)c(C(=O)NCc3nccc(Cl)c3F)cn2[C@H]2Cc3ccccc3[C@H]21` [Compound I-034], the EC50 amounted to 12 nM. Still for that read-out and setting: next, `CCN1C(=O)c2c(O)c(=O)c(C(=O)NCc3ccc(F)cc3F)cn2[C@H]2Cc3ccccc3[C@H]21` [Compound I-035]: 5.4 nM. As to `CCN1C(=O)c2c(O)c(=O)c(C(=O)NCc3cccc(Cl)c3F)cn2[C@H]2CCC3(CC3)C[C@H]21` [Compound I-036], the EC50 was determined as 7.1 nM. For `CCN1C(=O)c2c(O)c(=O)c(C(=O)NCc3ccc(F)cc3F)cn2[C@H]2[C@@H]1CCC2(F)F` [Compound I-037], the EC50 came to 3.6 nM. `CCN1C(=O)c2c(O)c(=O)c(C(=O)NCc3ccc(F)cc3F)cn2[C@@H]2[C@H]1CCC2(F)F` [Compound I-038]: the EC50 amounted to 4.3 nM. Same read-out and setting: with `CCN1C(=O)c2c(O)c(=O)c(C(=O)NCc3nccc(Cl)c3F)cn2[C@H]2[C@@H]1CCC2(F)F` [Compound I-039] the figure was 9.8 nM. As for `CCN1C(=O)c2c(O)c(=O)c(C(=O)NCc3nccc(Cl)c3F)cn2[C@@H]2[C@H]1CCC2(F)F` [Compound I-040], the EC50 is 13 nM. For the compound `CCN1C(=O)c2c(O)c(=O)c(C(=O)NCc3nccc(Cl)c3F)cn2[C@@H]2CC(F)(F)CC[C@@H]21` [Compound I-041], the EC50 was 12 nM. Regarding `CCN1C(=O)c2c(O)c(=O)c(C(=O)NCc3nccc(Cl)c3F)cn2[C@H]2CC(F)(F)CC[C@H]21` [Compound I-042], the EC50 was determined as 7.9 nM. On the same count and under the same terms, next, `CCN1C(=O)c2c(O)c(=O)c(C(=O)NCc3cccc(Cl)c3F)cn2[C@H]2[C@@H]1[C@@H]1CC[C@H]2O1` [Compound I-043]: 6.2 nM.

With `CCN1C(=O)c2c(O)c(=O)c(C(=O)NCc3cccc(Cl)c3F)cn2[C@@H]2[C@H]1[C@H]1CC[C@@H]2O1` [Compound I-044], the EC50 came to 7 nM.
